Drawing on PubChem BioAssay (NCI), this text covers TGI and GI50 for 25 compounds.

Structures are written as SMILES.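 Results reflect a 48-hour exposure of cells in 96-well plates to compound at five concentrations. Here, GI50 denotes the concentration required for 50% inhibition of growth. TGI: total growth inhibition.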 A value given as a limit tells only on which side of the number the result lay.

One experiment has as its system HOP-62 NSCLC. Briefly: NCI tumour cell line growth inhibition, 48 h.
`Cc1c2ccncc2c(C)c2c1[nH]c1ccc(O)c(OCC(F)(F)F)c12` gave a TGI of 20.9 µM.
Compound `CC(C)(C)OC(=O)NC1CCCC1=O` (stereo not given) showed a TGI greater than 100 µM.
Still for that read-out and setting: as for `Cc1c(C(=O)/C=C/c2ccccc2[N+](=O)[O-])[n+](=O)c2ccccc2n1[O-]`, the figure is 32.2 µM; as for `O=C1[C@H]2ON(c3ccccc3)C(c3ccco3)[C@H]2C(=O)N1c1ccc(Cc2ccc(N3C(=O)[C@@H]4ON(c5ccccc5)C(c5ccco5)[C@@H]4C3=O)cc2)cc1` (stereo not given in full), greater than 100 µM.
Compound `Cc1cccc(C)c1N1C(=O)C(=O)C(c2nc3ccccc3s2)/C(=N/NC(=O)NN)C1=O` (stereo not given) returned a TGI greater than 100 µM.
Regarding `CCCCCCC(C)CCCCCCCCCCC(=O)O` (stereo not given), the TGI was greater than 100 µM.
On the same count and under the same terms, as for `CC(C)(C)c1ccc(OC2CCO2)cc1` (stereo not given), the figure is greater than 100 µM; as for `CC1(O)CCn2c(=O)c3cc4ccccc4cc3c(=O)n2C1O` (stereo not given), greater than 100 µM.
As to `CC(C)[O-].CC(C)[O-].O=c1cccccc1[O-].O=c1cccccc1[O-].[Ti+4]`, the GI50 was greater than 100 µM and the TGI is greater than 100 µM.
For `COc1cc(CNc2nc3ccc(C(F)(F)F)cc3nc2-c2ccccc2)cc(OC)c1OC`, the TGI is greater than 100 µM.
In turn, `COc1ccccc1NC(=O)/C(=C/c1ccccc1)C(C)=O` registered a TGI greater than 100 µM.
Compound `CC(=O)n1c(=O)c2cc3c(=O)n(-c4cccc(C#N)c4)c(=O)c3cc2c1=O` came in with a TGI greater than 100 µM.
Consider `O=C(CC1(O)C(=O)Nc2c(Cl)ccc(Cl)c21)c1ccc(Cl)cc1Cl` (stereo not given), for which the TGI came to 59.5 µM.
Turning to `COc1ccc(C2Oc3c(c(O)cc4c3[C@H](c3ccc(O)cc3O)[C@H](O)C(c3ccc(O)c(O)c3)O4)C[C@@H]2O)cc1O` (stereo not given in full), the TGI was greater than 100 µM.
Consider `C=C1C2Oc3ccccc3C1N(c1ccccc1)O2` (stereo not given), for which the TGI was greater than 100 µM.
As to `C=CCNC(=O)N(CCC)CCCC(NC(C)=O)C(=O)NCc1ccccc1` (stereo not given), the TGI is greater than 100 µM.
For `CC(=O)[CH-]C(=O)c1ccccc1.CC(=O)[CH-]C(=O)c1ccccc1.CC1(C)OCC(C2OC3OC(C)(C)OC3C2[O-])O1.CC[O-].[Ti+4]` (stereo not given), the GI50 was 15.9 µM and the TGI was 31.1 µM.
`CCOC(=O)C1(Cc2ccc3ccccc3c2)CCCCC(=O)N1` (stereo not given) came in with a TGI greater than 100 µM.
Consider `COC(=O)C1C(=O)N(CCc2c[nH]c3ccccc23)C[C@@H]2CCC(=O)C[C@H]12` (stereo not given in full), for which the TGI was greater than 100 µM.
Regarding `C[C@]12C/C(=C/O)C(=O)C(O)=C1CC[C@@H]1C2CC[C@@]2(C)C1CC[C@@H]2O` (stereo not given in full), the TGI was greater than 100 µM.
`CC(C)(C)NCC(COc1ccc([N+](=O)[O-])cc1)OP(c1ccccc1)c1ccccc1` (stereo not given) had a TGI greater than 100 µM.
`N#CC(C#N)=c1c2nsnc2c(=C(C#N)C#N)c2nsnc12`: the TGI is 3.59 µM.
`Cn1c(=O)nc2n(-c3ccc(Cl)c(C(F)(F)F)c3)c3ccccc3nc-2c1=O` showed a TGI greater than 100 µM.
`Cc1nc(-c2cccnc2)sc1C(=O)/C=C/c1cccc([N+](=O)[O-])c1`: the TGI is greater than 100 µM.

The next experiment relates to 786-0 renal. The experiment can be described thus: NCI tumour cell line growth inhibition, 48 h.
In the case of `Cc1c2ccncc2c(C)c2c1[nH]c1ccc(O)c(OCC(F)(F)F)c12`, the TGI was 5.78 µM.
On the same count and under the same terms, in the case of `CC(C)(C)OC(=O)NC1CCCC1=O` (stereo not given) it was greater than 100 µM; in that of `Cc1c(C(=O)/C=C/c2ccccc2[N+](=O)[O-])[n+](=O)c2ccccc2n1[O-]`, 17.8 µM.
Take `O=C1[C@H]2ON(c3ccccc3)C(c3ccco3)[C@H]2C(=O)N1c1ccc(Cc2ccc(N3C(=O)[C@@H]4ON(c5ccccc5)C(c5ccco5)[C@@H]4C3=O)cc2)cc1` (stereo not given in full): the TGI is greater than 100 µM.
For the compound `Cc1cccc(C)c1N1C(=O)C(=O)C(c2nc3ccccc3s2)/C(=N/NC(=O)NN)C1=O` (stereo not given), the TGI was greater than 100 µM.
`CCCCCCC(C)CCCCCCCCCCC(=O)O` (stereo not given) came in with a TGI greater than 100 µM.
Consider `CC(C)(C)c1ccc(OC2CCO2)cc1` (stereo not given), for which the TGI came to 63.3 µM.
Take `CC1(O)CCn2c(=O)c3cc4ccccc4cc3c(=O)n2C1O` (stereo not given): the TGI was greater than 100 µM.
`CC(C)[O-].CC(C)[O-].O=c1cccccc1[O-].O=c1cccccc1[O-].[Ti+4]` came in with a TGI of 69.9 µM.
Compound `COc1cc(CNc2nc3ccc(C(F)(F)F)cc3nc2-c2ccccc2)cc(OC)c1OC` had a TGI greater than 100 µM.
Consider `COc1ccccc1NC(=O)/C(=C/c1ccccc1)C(C)=O`, for which the TGI is greater than 100 µM.
`CC(=O)n1c(=O)c2cc3c(=O)n(-c4cccc(C#N)c4)c(=O)c3cc2c1=O`: the TGI is greater than 100 µM.
Compound `O=C(CC1(O)C(=O)Nc2c(Cl)ccc(Cl)c21)c1ccc(Cl)cc1Cl` (stereo not given) registered a TGI of 27.8 µM.
On the same count and under the same terms, in the case of `CC1=NN(C(=O)c2ccncc2)C(=O)C1N=Nc1ccc(F)cc1` (stereo not given) it was greater than 100 µM.
The same measure, in the same setting: in the case of `COc1ccc(C2Oc3c(c(O)cc4c3[C@H](c3ccc(O)cc3O)[C@H](O)C(c3ccc(O)c(O)c3)O4)C[C@@H]2O)cc1O` (stereo not given in full) it was greater than 100 µM.
Take `C=C1C2Oc3ccccc3C1N(c1ccccc1)O2` (stereo not given): the TGI is greater than 100 µM.
`C=CCNC(=O)N(CCC)CCCC(NC(C)=O)C(=O)NCc1ccccc1` (stereo not given) displayed a TGI greater than 100 µM.
Regarding `CC(=O)[CH-]C(=O)c1ccccc1.CC(=O)[CH-]C(=O)c1ccccc1.CC1(C)OCC(C2OC3OC(C)(C)OC3C2[O-])O1.CC[O-].[Ti+4]` (stereo not given), the GI50 was 18.4 µM and the TGI was found to be 36 µM.
As to `CCOC(=O)C1(Cc2ccc3ccccc3c2)CCCCC(=O)N1` (stereo not given), the TGI is greater than 100 µM.
Turning to `COC(=O)C1C(=O)N(CCc2c[nH]c3ccccc23)C[C@@H]2CCC(=O)C[C@H]12` (stereo not given in full), the TGI was greater than 100 µM.
With `C[C@]12C/C(=C/O)C(=O)C(O)=C1CC[C@@H]1C2CC[C@@]2(C)C1CC[C@@H]2O` (stereo not given in full), the TGI is 87.5 µM.
In the case of `CC(C)(C)NCC(COc1ccc([N+](=O)[O-])cc1)OP(c1ccccc1)c1ccccc1` (stereo not given), the TGI is greater than 100 µM.
Consider `N#CC(C#N)=c1c2nsnc2c(=C(C#N)C#N)c2nsnc12`, for which the TGI amounted to 17.9 µM.
Compound `Cn1c(=O)nc2n(-c3ccc(Cl)c(C(F)(F)F)c3)c3ccccc3nc-2c1=O` showed a TGI greater than 100 µM.
`Cc1nc(-c2cccnc2)sc1C(=O)/C=C/c1cccc([N+](=O)[O-])c1`: the TGI was greater than 100 µM.

A further experiment concerns SR leukemia. Briefly: NCI tumour cell line growth inhibition, 48 h.
The compound `CC(C)(C)OC(=O)NC1CCCC1=O` (stereo not given) had a TGI greater than 100 µM.
The compound `Cc1c(C(=O)/C=C/c2ccccc2[N+](=O)[O-])[n+](=O)c2ccccc2n1[O-]` showed a TGI of 31.6 µM.
Same read-out and setting: in the case of `Cc1cccc(C)c1N1C(=O)C(=O)C(c2nc3ccccc3s2)/C(=N/NC(=O)NN)C1=O` (stereo not given) it was greater than 100 µM; in that of `CCCCCCC(C)CCCCCCCCCCC(=O)O` (stereo not given), greater than 100 µM.
In turn, `CC1(O)CCn2c(=O)c3cc4ccccc4cc3c(=O)n2C1O` (stereo not given) registered a TGI greater than 100 µM.
Same read-out and setting: in the case of `CC(C)[O-].CC(C)[O-].O=c1cccccc1[O-].O=c1cccccc1[O-].[Ti+4]` it was greater than 100 µM.
The compound `COc1ccccc1NC(=O)/C(=C/c1ccccc1)C(C)=O` yielded a TGI greater than 100 µM.
For `COc1ccc(C2Oc3c(c(O)cc4c3[C@H](c3ccc(O)cc3O)[C@H](O)C(c3ccc(O)c(O)c3)O4)C[C@@H]2O)cc1O` (stereo not given in full), the TGI is greater than 100 µM.
For the compound `C=C1C2Oc3ccccc3C1N(c1ccccc1)O2` (stereo not given), the TGI is greater than 100 µM.

For the next experiment, the system named is K-562 leukemia. Briefly: NCI tumour cell line growth inhibition, 48 h.
`Cc1c2ccncc2c(C)c2c1[nH]c1ccc(O)c(OCC(F)(F)F)c12` came in with a TGI of 33.9 µM.
As for `CC(C)(C)OC(=O)NC1CCCC1=O` (stereo not given), the TGI was greater than 100 µM.
Turning to `Cc1c(C(=O)/C=C/c2ccccc2[N+](=O)[O-])[n+](=O)c2ccccc2n1[O-]`, the TGI turned out to be 30.6 µM.
Same read-out and setting: as for `O=C1[C@H]2ON(c3ccccc3)C(c3ccco3)[C@H]2C(=O)N1c1ccc(Cc2ccc(N3C(=O)[C@@H]4ON(c5ccccc5)C(c5ccco5)[C@@H]4C3=O)cc2)cc1` (stereo not given in full), the figure is greater than 100 µM; as for `CCCCCCC(C)CCCCCCCCCCC(=O)O` (stereo not given), greater than 100 µM.
Same read-out and setting: in the case of `CC(C)(C)c1ccc(OC2CCO2)cc1` (stereo not given) it was 39.1 µM.
In turn, `CC1(O)CCn2c(=O)c3cc4ccccc4cc3c(=O)n2C1O` (stereo not given) gave a TGI greater than 100 µM.
`CC(C)[O-].CC(C)[O-].O=c1cccccc1[O-].O=c1cccccc1[O-].[Ti+4]` displayed a TGI greater than 100 µM.
Compound `COc1cc(CNc2nc3ccc(C(F)(F)F)cc3nc2-c2ccccc2)cc(OC)c1OC` displayed a TGI greater than 100 µM.
Take `COc1ccccc1NC(=O)/C(=C/c1ccccc1)C(C)=O`: the TGI was greater than 100 µM.
On to `CC(=O)n1c(=O)c2cc3c(=O)n(-c4cccc(C#N)c4)c(=O)c3cc2c1=O`, for which the TGI is greater than 100 µM.
In the case of `CC1=NN(C(=O)c2ccncc2)C(=O)C1N=Nc1ccc(F)cc1` (stereo not given), the TGI is greater than 100 µM.
`COc1ccc(C2Oc3c(c(O)cc4c3[C@H](c3ccc(O)cc3O)[C@H](O)C(c3ccc(O)c(O)c3)O4)C[C@@H]2O)cc1O` (stereo not given in full) gave a TGI greater than 100 µM.
The same measure, in the same setting: as for `C=C1C2Oc3ccccc3C1N(c1ccccc1)O2` (stereo not given), the figure is greater than 100 µM.
In the case of `C=CCNC(=O)N(CCC)CCCC(NC(C)=O)C(=O)NCc1ccccc1` (stereo not given), the TGI is greater than 100 µM.
Regarding `CC(=O)[CH-]C(=O)c1ccccc1.CC(=O)[CH-]C(=O)c1ccccc1.CC1(C)OCC(C2OC3OC(C)(C)OC3C2[O-])O1.CC[O-].[Ti+4]` (stereo not given), the GI50 is 15.3 µM and the TGI came out at 62.6 µM.
For the compound `CCOC(=O)C1(Cc2ccc3ccccc3c2)CCCCC(=O)N1` (stereo not given), the TGI is greater than 100 µM.
The compound `COC(=O)C1C(=O)N(CCc2c[nH]c3ccccc23)C[C@@H]2CCC(=O)C[C@H]12` (stereo not given in full) gave a TGI greater than 100 µM.
Compound `C[C@]12C/C(=C/O)C(=O)C(O)=C1CC[C@@H]1C2CC[C@@]2(C)C1CC[C@@H]2O` (stereo not given in full) returned a TGI of 82.2 µM.
Same read-out and setting: in the case of `CC(C)(C)NCC(COc1ccc([N+](=O)[O-])cc1)OP(c1ccccc1)c1ccccc1` (stereo not given) it was greater than 100 µM; in that of `Cn1c(=O)nc2n(-c3ccc(Cl)c(C(F)(F)F)c3)c3ccccc3nc-2c1=O`, greater than 100 µM.
With `Cc1nc(-c2cccnc2)sc1C(=O)/C=C/c1cccc([N+](=O)[O-])c1`, the TGI is greater than 100 µM.

Another experiment deals with ACHN renal. The experiment can be described thus: NCI tumour cell line growth inhibition, 48 h.
Compound `CC(C)(C)OC(=O)NC1CCCC1=O` (stereo not given) displayed a TGI greater than 100 µM.
In turn, `Cc1c(C(=O)/C=C/c2ccccc2[N+](=O)[O-])[n+](=O)c2ccccc2n1[O-]` yielded a TGI of 24.2 µM.
As to `O=C1[C@H]2ON(c3ccccc3)C(c3ccco3)[C@H]2C(=O)N1c1ccc(Cc2ccc(N3C(=O)[C@@H]4ON(c5ccccc5)C(c5ccco5)[C@@H]4C3=O)cc2)cc1` (stereo not given in full), the TGI was greater than 100 µM.
Still for that read-out and setting: in the case of `Cc1cccc(C)c1N1C(=O)C(=O)C(c2nc3ccccc3s2)/C(=N/NC(=O)NN)C1=O` (stereo not given) it was greater than 100 µM; in that of `CCCCCCC(C)CCCCCCCCCCC(=O)O` (stereo not given), greater than 100 µM; in that of `CC(C)(C)c1ccc(OC2CCO2)cc1` (stereo not given), greater than 100 µM.
